Test results from patent EP4653444A1, “FUSED TRICYCLIC COMPOUND AS KINASE INHIBITOR” (Hangzhou Innogate Pharma Co., Ltd., priority 2023, dated 2024).
Where two headings read alike, the source gives them in different places.

How the values were obtained:
FAK kinase [1] = target: T1, FAK kinase (Homo sapiens, UniProt Q05397); assay: FAK kinase activity inhibition assay, method A (HTRF) and method B (Lantha screen); type: biochemical
Protocol: (§1) The HTRF method was used to evaluate the inhibitory activity of the compounds against FAK kinase. […]. The reaction conditions were: FAK kinase at 0.1 ng/µL; ATP 10 µM; substrate concentration 1 µM. Compounds were serially diluted in DMSO and shaken on a shaker for 20 minutes. Prepare 2× kinase using 1× reaction buffer. Transfer 25 nL compound to a 384-well plate using Echo 655. Add 2.5 µL kinase per well. Seal the plate with sealing film, centrifuge at 1000 rpm for 60 seconds, and incubate at 25°C for 12 hours. Prepare 2× ATP/substrate mix using 1× enzyme reaction buffer and add 2.5 µL 2× ATP/substrate mix per well. Seal the plate with sealing film, centrifuge at 1000 rpm for 60 seconds, and incubate at 25°C for 50 minutes. Prepare 2×XL665 & antibody solution using HTRF detection buffer, and add 5 µL per well. Incubate at 25°C for 60 minutes. Read fluorescence at 620 nm (Cryptate) and 665 nm (XL665). Calculate the ratio per well (Ratio_665/620 nm). % Inhibition = 100% - [(Compound Ratio - Positive Control Ratio)/ (Negative Control Ratio - Positive Control Ratio)] × 100%. IC50 values (half-maximal inhibitory concentration) were calculated by nonlinear regression using GraphPad Prism 7.0. Y = Bottom + (Top - Bottom)/ (1 + 10^ ((LogIC50 - X) × Hill Slope)), where X is the log of compound concentration and Y is the % inhibition.
The Lantha screen assay was used to evaluate the FAK kinase inhibitory activity. Compounds were dissolved in 100% DMSO at 10 mM stock concentration. Prepare 1× kinase buffer (25 mM HEPES, pH 7.5, 0.01 mM Triton, 0.5 mM EGTA, 0.01% Brij-35). Dilute compounds in a gradient, and transfer 5 µL compound into the reaction plate. Prepare 2× kinase solution with 1× Kinase buffer. Add 5 µL kinase solution to compound and positive control wells, and 5 µL 1× Kinase buffer to negative control wells. Mix reaction plate by shaking. Prepare 4× ATP/Fluorescein-polyGT substrate mix with 1× Kinase buffer. Add 2.5 µL substrate solution to initiate the reaction. Shake and incubate at room temperature for 30 minutes. Prepare 2× detection reagent (2 nM antibody, 10 mM EDTA) and add 10 µL per well to stop the reaction. Briefly centrifuge, mix, and incubate for 60 minutes. Read fluorescence at 340 nm excitation and 520 nm/495 nm emission using EnVision. Collect data and calculate 520 nm/495 nm ratio. Calculate the inhibition percentage using the formula: % Inhibition = (Max - Sample Ratio)/(Max - Min) × 100, where min is the mean of negative control wells (no enzyme activity), and max is the mean of positive control wells (DMSO-inhibited conversion rate).Use XLFit Excel add-in version 5.4.0.8 to determine the IC50 values of each compound against the enzyme activity: Y = Bottom + (Top - Bottom)/(1 + (IC50/X)^HillSlope).

TNK1 kinase = target: T2, TNK1 kinase (Homo sapiens, UniProt Q13470); assay: TNK1 kinase activity inhibition assay (ADP-Glo); type: biochemical
T2 sequence (Q13470 1-666): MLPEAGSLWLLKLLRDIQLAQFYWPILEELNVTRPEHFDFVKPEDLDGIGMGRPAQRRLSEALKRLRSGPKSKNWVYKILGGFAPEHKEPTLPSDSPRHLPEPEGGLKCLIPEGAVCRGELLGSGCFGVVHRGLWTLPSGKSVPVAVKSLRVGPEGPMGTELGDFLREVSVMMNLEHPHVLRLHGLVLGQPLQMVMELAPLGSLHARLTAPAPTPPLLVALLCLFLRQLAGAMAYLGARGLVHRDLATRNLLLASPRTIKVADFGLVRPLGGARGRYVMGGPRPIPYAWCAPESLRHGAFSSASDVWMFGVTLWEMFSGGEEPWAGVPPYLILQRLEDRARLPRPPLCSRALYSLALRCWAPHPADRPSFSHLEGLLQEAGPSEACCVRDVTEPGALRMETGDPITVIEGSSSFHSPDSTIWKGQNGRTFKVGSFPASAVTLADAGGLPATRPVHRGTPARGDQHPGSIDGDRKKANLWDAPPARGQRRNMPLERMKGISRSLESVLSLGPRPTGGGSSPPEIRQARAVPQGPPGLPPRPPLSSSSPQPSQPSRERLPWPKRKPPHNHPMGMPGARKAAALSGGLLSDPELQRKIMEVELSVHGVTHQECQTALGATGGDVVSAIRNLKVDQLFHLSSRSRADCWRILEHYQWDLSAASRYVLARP
Protocol: Measure compound inhibitory activity against TNK1 kinase using ADP-Glo Assay. 1× kinase reaction buffer was prepared (working concentrations: HEPES 50 mM, MgCl2 10 mM, Brij35 0.01%, EGTA 1 mM, DTT 2 mM). 2× kinase and 4× substrate buffers were prepared with the following working concentrations: For TNK1 kinase: kinase solution at 5 nM; substrate mixture containing ATP at 45 µM and MBP substrate at 0.1 mg/ mL. For ULK2 kinase: kinase solution at 0.15 nM; substrate mixture containing ATP at 6 µM and MBP substrate at 0.1 mg/mL. Compounds were serially diluted in DMSO and shaken on an orbital shaker for 20 minutes. 2× kinase solution was prepared using 1× kinase reaction buffer. 20 nL of compound solution was transferred to a 384-well plate. 2 µL of kinase solution was added to each well of the reaction plate. The plate was sealed with adhesive film, centrifuged at 1000 rpm for 60 seconds, and incubated at 25°C for 10 minutes. 2× ATP&MBP mixture was prepared using 1× kinase reaction buffer. 2 µL of 2× ATP&substrate mixture was added to the reaction plate. The plate was sealed with adhesive film, centrifuged at 1000 rpm for 60 seconds, and incubated at 25°C for 60 minutes. 4 µL of ADP-Glo reagent was transferred to the 384-well reaction plate, centrifuged at 1000 rpm for 1 minute, and incubated at 25°C for 40 minutes. 8 µL of Detection solution was transferred to the 384-well reaction plate, centrifuged at 1000 rpm for 1 minute, and incubated at 25°C for 40 minutes. Relative luminescence units (RLU) were measured using a BMG microplate reader, with signal intensity representing kinase activity level. The inhibition percentage was calculated as follows: % inhibition = 100% - [(Compound RLU - Positive Control RLU)/(Negative Control RLU - Positive Control RLU)] × 100%. The IC50 values (half-maximal inhibitory concentration) of compounds were determined by fitting the data to the following nonlinear regression equation using GraphPad Prism 7.0 software: Y = Bottom + (Top - Bottom)/(1 + 10^((LogIC50 - X) × Hill Slope)), where: X = log(compound concentration), Y = % inhibition. Table1: Inhibitory activity of compounds against ULK (IC50, nM)

[2] = Pharmacokinetic study in rats; settings: rat, plasma, po, 3 mg/kg
Protocol: Pharmacokinetic parameters were calculated by statistical moment method using WinNonLin 8.0 software, mainly including Tmax, T1/2, Cmax and AUC0-24h.
Animals: Three male SD rats weighing 200-220 g were used. After purchase, they were housed in the laboratory animal center for 2 days before experiment. […] Blood samples were collected at scheduled time points after oral gavage.
Vehicle: 0.4% ethanol + 0.4% Tween 80 + 99.2% (0.5% methylcellulose M450). Preparation of oral gavage solution: The compound was accurately weighed and dissolved in vehicle by ultrasonication for 5 min at room temperature to prepare 0.3 mg/mL drug solution.
Single compound administration was also used to study pharmacokinetics in rats.
Blood sample collection: After oral gavage, blood samples were collected from orbital sinus at 0.25, 0.5, 1, 2, 4, 8, 10 and 24 h. 50 µL plasma was mixed with 200 µL acetonitrile (containing 2 ng/mL verapamil as internal standard). The mixture was vortexed for 3 min, then centrifuged at 20000 rcf for 10 min at 4 °C. The supernatant was analyzed by LC-MS/MS.
Standard curves were established by accurately weighing and preparing compounds at different concentrations for mass spectrometric quantification. Compound concentrations in plasma samples were determined based on standard curves to obtain concentration-time profiles. All measurement data were collected and processed by relevant software. Pharmacokinetic parameters (including Tmax, T1/2, Cmax and AUC0-24h) were calculated by statistical moment method.

FAK kinase [3] = target: T1, FAK kinase; assay: FAK kinase activity inhibition assay, method A (HTRF); type: biochemical
Protocol: as §1

[4] = Table 4, read-out: FAK(method A and method B) (IC50)

T1 sequence (Q05397 whole entry): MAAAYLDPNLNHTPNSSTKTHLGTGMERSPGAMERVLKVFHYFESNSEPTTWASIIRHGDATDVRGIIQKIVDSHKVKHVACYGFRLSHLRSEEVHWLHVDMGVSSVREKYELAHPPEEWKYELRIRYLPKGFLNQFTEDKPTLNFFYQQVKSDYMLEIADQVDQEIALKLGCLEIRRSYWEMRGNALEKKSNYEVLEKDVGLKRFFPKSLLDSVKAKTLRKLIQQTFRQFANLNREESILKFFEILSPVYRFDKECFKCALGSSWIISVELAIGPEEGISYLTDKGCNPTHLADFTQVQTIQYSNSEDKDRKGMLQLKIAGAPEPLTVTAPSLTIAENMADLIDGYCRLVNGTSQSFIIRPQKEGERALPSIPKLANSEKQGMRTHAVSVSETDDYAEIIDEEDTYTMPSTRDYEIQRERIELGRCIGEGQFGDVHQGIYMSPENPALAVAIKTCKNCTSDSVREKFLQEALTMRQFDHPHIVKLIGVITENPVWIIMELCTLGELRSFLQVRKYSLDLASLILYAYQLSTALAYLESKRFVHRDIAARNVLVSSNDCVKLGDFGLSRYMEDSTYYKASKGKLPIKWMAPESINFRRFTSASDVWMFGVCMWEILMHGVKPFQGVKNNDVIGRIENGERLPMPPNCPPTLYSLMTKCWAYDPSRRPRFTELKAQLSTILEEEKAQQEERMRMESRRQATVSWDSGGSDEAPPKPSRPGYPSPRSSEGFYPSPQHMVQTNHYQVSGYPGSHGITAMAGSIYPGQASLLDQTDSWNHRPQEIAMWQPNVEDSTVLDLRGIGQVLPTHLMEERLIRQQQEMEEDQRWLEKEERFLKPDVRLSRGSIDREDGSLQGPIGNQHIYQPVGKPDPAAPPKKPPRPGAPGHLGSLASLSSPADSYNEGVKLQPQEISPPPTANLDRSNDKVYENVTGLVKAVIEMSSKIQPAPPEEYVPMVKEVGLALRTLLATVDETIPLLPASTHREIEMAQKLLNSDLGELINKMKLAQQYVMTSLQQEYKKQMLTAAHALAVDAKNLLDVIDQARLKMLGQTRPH

Structure (SMILES) | IC50 (FAK kinase [1]; Table 3, read-out: FAK(method A and B) (IC50)) [nM] | IC50 (TNK1 kinase) [nM] | AUC(0-t) at 24 h [2] [ng·h/mL] | Cmax [2] [ng/mL] | Tmax [2] [h] | half-life [2] [h] | IC50 (FAK kinase [3]) [nM] | IC50 (FAK kinase [1]; [4]) [nM] | IC50 (FAK kinase [3]; Table 2, HTRF, ATP 10 µM, read-out: FAK (method A) (IC50)) [nM] | IC50 (FAK kinase [1]) [nM] | IC50 (TNK1 kinase; Table 5, ATP 45 µM, read-out: TNK1 (IC50)) [nM]
CC(C)Oc1cc2c(cc1Nc1ncc(Cl)c(Nc3ccccc3S(=O)(=O)C(C)C)n1)OC[C@@H]1CN(C3CCN(C)CC3)CCN21 [Compound C3S] | < 5 |  |  |  |  |  |  |  |  |  | 
COc1cc2c(cc1Nc1ncc(Cl)c(Nc3cccnc3N3CCCC3=O)n1)OC[C@H]1CN(C)CCN21 [Compound E2R] |  | < 0.5 | 332 | 74.4 | 1 | 2.07 |  |  |  |  | 
COc1cc2c(cc1Nc1ncc(C(F)(F)F)c(CCc3ccccc3CC(N)=O)n1)OC[C@H]1CN(C3CCN(C)CC3)CCN21 [Compound B2R] |  |  | 880 | 76.4 | 4.7 | 7.4 | < 0.5 |  |  |  | 
CCN1CCN2c3cc(OC)c(Nc4ncc(C(F)(F)F)c(CCc5ccccc5CC(N)=O)n4)cc3OC[C@H]2C1 [Compound B5R] |  |  | 685 | 118 | 2 | 2.8 | < 0.5 |  |  |  | 
COc1cc2c(cc1Nc1ncc(C(F)(F)F)c(CCc3ccccc3CC(N)=O)n1)OC[C@H]1CN(S(C)(=O)=O)CCN21 [Compound B8R] |  |  | 133 | 39.3 | 1.7 | 1.5 | < 0.5 |  |  |  | 
CCC(=O)N1CCN2c3cc(OC)c(Nc4ncc(Cl)c(Nc5cccnc5N5CCCC5=O)n4)cc3OC[C@H]2C1 [Compound E6R] |  | < 1 | 581 | 352 | 0.5 | 1.05 |  |  |  |  | 
CCOc1cc2c(cc1Nc1cc(Nc3ccccc3C(=O)NC)c(C(F)(F)F)cn1)OC[C@@H]1CN(C3CCN(C)CC3)CCN21 [Compound D5S] |  |  |  |  |  |  |  | < 1 |  |  | 
COc1cc2c(cc1Nc1ncc(C(F)(F)F)c(CCc3ccccc3CC(N)=O)n1)OC[C@H]1CN(C3CC3)CCN21 [Compound B6R] |  |  | 905 | 299 | 1 | 1.3 | < 1 |  |  |  | 
COc1cc2c(cc1Nc1ncc(Cl)c(Nc3cccnc3N3CCCC3=O)n1)OC[C@H]1CN(C(C)=O)CCN21 [Compound E5R] |  | < 0.5 | 1560 | 500 | 1 | 1.38 |  |  |  |  | 
CCN1CCC(N2CCN3c4cc(OC)c(Nc5ncc(Cl)c(Nc6cccnc6N6CCCC6=O)n5)cc4OC[C@H]3C2)CC1 [Compound E9R] |  | < 1 | 1200 | 71.6 | 9.33 | 14.5 |  |  |  |  | 
COc1cc2c(cc1Nc1ncc(C(F)(F)F)c(CCc3ccccc3CC(N)=O)n1)OC[C@H]1CN(C3CCNCC3)CCN21 [Compound B10R] |  |  |  |  |  |  |  |  | < 0.5 |  | 
COc1cc2c(cc1Nc1ncc(Cl)c(Nc3cccnc3N3CCCC3=O)n1)OC[C@H]1CN(C3CCN(C(C)=O)CC3)CCN21 [Compound E11R] |  | < 1 | 8110 | 1090 | 1.33 | 4.36 |  |  |  |  | 
COc1cc2c(cc1Nc1ncc(Cl)c(Nc3cccnc3N3CCCC3=O)n1)OC[C@H]1CN(C3CCN(C4CC4)CC3)CCN21 [Compound E10R] |  | < 0.5 | 2000 | 133 | 3.67 | 9.69 |  |  |  |  | 
CNC(=O)c1ccccc1Nc1cc(Nc2cc3c(cc2OC)N2CCN(C4CCOCC4)C[C@H]2CO3)ncc1C(F)(F)F [Compound D1S] |  |  | 11000 | 2320 | 1.67 | 2.63 |  |  |  | < 0.5 | 
CCc1cc2c(cc1Nc1ncc(C(F)(F)F)c(NCCCN3CCOCCC3=O)n1)OC[C@@H]1CN(C3CCN(C)CC3)CCN21 [Compound A2S] |  |  | 98 | 11.8 | 1.17 | 7.05 |  |  |  |  | 
COc1cc2c(cc1Nc1ncc(Cl)c(Nc3cccnc3N3CCCC3=O)n1)OC[C@H]1CNCCN21 [Compound E1R] |  | < 0.5 |  |  |  |  |  |  |  |  | 
CNC(=O)c1ccccc1Nc1cc(Nc2cc3c(cc2OC)N2CCN(C4COC4)C[C@H]2CO3)ncc1C(F)(F)F [Compound D3S] |  |  |  |  |  |  |  | < 1 |  |  | 
COc1cc2c(cc1Nc1ncc(Cl)c(Nc3cccnc3N3CCCC3=O)n1)OC[C@H]1CN(C3CCN(C)CC3)CCN21 [Compound E3R] |  |  |  |  |  |  |  |  |  |  | < 0.5
COc1cc2c(cc1Nc1ncc(Cl)c(Nc3cccnc3N3CCCC3=O)n1)OC[C@H]1CN(C3CN(C)C3)CCN21 [Compound E8R] |  | < 2 | 3170 | 411 | 2 | 3.37 |  |  |  |  | 
COc1cc2c(cc1Nc1ncc(Cl)c(Nc3cccnc3N3CCCC3=O)n1)OC[C@H]1CN(C(=O)C3CC3)CCN21 [Compound E7R] |  | < 2 | 473 | 292 | 0.5 | 1.08 |  |  |  |  | 
COc1cc2c(cc1Nc1ncc(Cl)c(Nc3cccnc3N3CCCC3=O)n1)OC[C@H]1CN(C3CCOCC3)CCN21 [Compound E4R] |  | < 0.5 | 83.9 | 69 | 0.5 | 0.99 |  |  |  |  | 
CNC(=O)c1ccccc1Nc1cc(Nc2cc3c(cc2OC(C)C)N2CCN(C4CCN(C)CC4)C[C@H]2CO3)ncc1C(F)(F)F [Compound D6S] |  |  | 675 | 52.3 | 6.67 | 5.74 |  |  |  | < 3 | 
